Laboratory results taken from publication PMC5054363 (Scientific Reports, 2016).
“Also recorded” adds a separate entry of the source. *1 amine or outer side, *2 acyl side, *3 side chain or, on linkers, in order; H or OH if unused. Where a SMILES comes first, the peptide text is derived from it. Bridges are numbered along the chain shown (N, C = ends). [ ]: non-standard residue; d: D form. The star is where a group is joined. X1 = CC[C@H](C)[C@@H](N[*:1])[C@@H](O)CC(=O)O[C@H](C(=O)[C@H](C)C(=O)[*:2])C(C)C; NMeY = CN[C@@H](Cc1ccc(O)cc1)C(=O)O; dNMeL = CN[C@H](CC(C)C)C(=O)O; Pyruvoyl = CC(=O)C(=O)*

Key:
[1] = target: T1, eEF1A2 purified from rabbit muscle (Oryctolagus cuniculus, UniProt Q71V39); assay: biochemical
T1 sequence (Q71V39 whole entry): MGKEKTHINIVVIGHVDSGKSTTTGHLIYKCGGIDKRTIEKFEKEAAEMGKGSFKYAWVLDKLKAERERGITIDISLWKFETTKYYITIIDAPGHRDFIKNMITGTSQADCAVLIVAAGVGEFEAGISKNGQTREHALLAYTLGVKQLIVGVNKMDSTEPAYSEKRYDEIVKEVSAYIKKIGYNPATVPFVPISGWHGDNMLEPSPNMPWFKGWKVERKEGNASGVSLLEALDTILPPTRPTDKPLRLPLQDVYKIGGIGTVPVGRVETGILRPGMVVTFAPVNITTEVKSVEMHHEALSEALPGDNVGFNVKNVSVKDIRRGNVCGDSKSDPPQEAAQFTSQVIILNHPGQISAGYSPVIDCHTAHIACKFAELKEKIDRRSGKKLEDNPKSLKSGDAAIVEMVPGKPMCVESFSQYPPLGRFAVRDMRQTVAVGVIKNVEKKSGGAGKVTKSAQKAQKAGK
Protocol: (§1) (A) Saturation binding curve. Protein and radioligand were incubated for 1 h at room temperature and samples were processed as described in the text. […] The experiment was performed as described in the text, and the experimental points were fitted to a single exponential decay equation by non-linear regression. […] Extracts were then digested with the indicated concentrations of subtilisin for 30 min at room temperature. Samples were resolved by SDS-PAGE and the degradation of eEF1A2 analyzed by Western blot; quantitation of the bands from the DARTS assay was performed with the ImageJ software.
At the selected times after this last addition, 400 μL of each sample were withdrawn and processed as above.

[2] = test system: sphingosine kinase-1 (SK1); assay: Sphingosine kinase-1 activity in tumor cells; assay type: cell-based; details: preliminary, data not shown
[3] = test system: multiple myeloma cells; details: cited from earlier work
Source text: For example, it is known that eEF1A is able to directly increase the activity of sphingosine kinase-1 (SK1), an effect that is related to oncogenesis. […] The hijacking of eEF1A with the consequent reduction of SK1 activity has already been describe ...

[4] = test system: signaling events in HeLa-APL-R cells; details: HeLa-APL-R versus parental HeLa; cited from earlier work
Source text: In contrast, HeLa cells ectop ...

[5] = test system: three tumor cell lines selected for resistance to plitidepsin
Protocol: In all cases eEF1A2 protein levels were analyzed by Western Blot as shown in the right hand side of each graph. ● wild type cells, ○ APL-R cells.
HeLa cervix adenocarcinoma (ATCC CCL-2), K-562 chronic myelogenous leukemia (ATCC CCL-243), NCI-H460 lung cancer (ATCC HTB-177) and HGC27 gastric cancer (ATCC CRL-2506) cells were obtained from ATCC (Manassas, VA, USA) and cultured following standard procedures. Viability assays were performed utilizing 3-(4,5-dimethylthiazol-2-yl)-2,5-diphenyltetrazolium bromide (MTT) according to methods described elsewhere.

[6] = test system: signaling in HeLa cells overexpressing eEF1A2-GFP; assay: Signaling (Western blot) in HeLa overexpressing eEF1A2-GFP; assay type: cell-based, human; details: plitidepsin 450 nM
Protocol: (§2) (A) HeLa and HeLa-APL-R cells were stably transfected with an expression vector encoding for eEF1A2-GFP fusion protein. Clones homogeneously expressing the GFP were selected. The levels of expression of eEF1A2 were analyzed by Western blot using specific antibodies. The position of the endogenous and the GFP-fusion proteins are indicated. […] Levels of expression attained after transfection were similar to the endogenous levels. […] Concentration-response curves were performed at 72 h. Cell growth was determined by the MTT method and expressed as percentage of control cell survival.
(§3) For transfection and selection of cell clones, HeLa and HeLa-APL-R cells were seeded in 24 well plates at 40% confluence and allowed to stand for 24 hours at 37 °C and 5% CO2. Before transfection, the culture medium was changed to Opti-MEM (Life Technologies, Carlsbad, CA, USA). Plasmids encoding eEF1A2-GFP were incubated with Lipofectamine (Life Technologies, Carlsbad, CA, USA) under the recommendations of the manufacturer and added to the cell medium. After 24 h incubation at 37 °C and 5% CO2, the culture medium was replaced by the standard DMEM supplemented with 2 mg/ml of G-418 for the selection of clones expressing the exogenous gene. Clones were further selected following the expression of the GFP-fused protein through fluorescence microscopy.

[7] = test system: NCI-H460 non-small cell lung cancer cells; assay: Cell growth inhibition (MTT, 72 h), NCI-H460; assay type: cell-based; details: parental NCI-H460, 72 h
Protocol: HeLa cervix adenocarcinoma (ATCC CCL-2), K-562 chronic myelogenous leukemia (ATCC CCL-243), NCI-H460 lung cancer (ATCC HTB-177) and HGC27 gastric cancer (ATCC CRL-2506) cells were obtained from ATCC (Manassas, VA, USA) and cultured following standard procedures. Viability assays were performed utilizing 3-(4,5-dimethylthiazol-2-yl)-2,5-diphenyltetrazolium bromide (MTT) according to methods described elsewhere[46].

[8] = test system: NCI-H460-APL-R non-small cell lung cancer cells (plitidepsin-resistant); assay: Cell growth inhibition (MTT, 72 h), NCI-H460-APL-R; assay type: cell-based; details: highest concentration tested 100 nM
[9] = target: T1, eEF1A2 purified from rabbit muscle; details: saturation binding, Swillens fit
Protocol: as §1

[10] = test system: eEF1A2; assay: GDP/GTP exchange in eEF1A2; assay type: biochemical; details: with EF1B, data not shown
[11] = test system: HeLa cervical cancer cells; parameters: method as in PMID 15365569; details: HeLa parental cells, 72 h, Fig. 1A; reported as previously described; cited from earlier work
[12] = test system: HeLa-APL-R cells stably transfected with eEF1A2-GFP; assay: Antiproliferative activity in HeLa-APL-R stably transfected with eEF1A2-GFP; assay type: cell-based, human; details: 72 h, MTT
Protocol: as §2, §3

[13] = test system: HeLa-APL-R cervical cancer cells (plitidepsin-resistant); parameters: method as in PMID 15365569; details: 72 h, Fig. 1A, reported as previously described; cited from earlier work
[14] = test system: sphingosine kinase-1 (SK1); assay: Direct effect on SK1; assay type: biochemical; details: preliminary, data not shown
[15] = test system: CHRM4 (M4 muscarinic acetylcholine receptor); assay: PathHunter acetylcholine-mediated CHRM4 activation; assay type: cell-based; details: CHO-transfected cell line, preliminary, data not shown
Source text: For example, it is known that eEF1A is able to directly increase the activity of sphingosine kinase-1 (SK1), an effect that is related to oncogenesis. […] The hijacking of eEF1A with the consequent reduction of SK1 activity has already been described as a biological mechanism in dengue virus type-2 infected cells. Another example is the specific binding of eEF1A2 to the i3 loop of M4, but not M1, muscarinic acetylcholine receptor[40]. This direct interaction with M4 regulates its cell membrane density and activity. […] This is due to a specific interaction of eEF1A with aberrant polypeptides named defective ribosomal products (DRiPs) that are ligated to multi-ubiquitin chains following translation damage; eEF1A also plays a role in sensing DRiP accumulation when the proteasome is inhibited.

[16] = test system: HGC27-APL-R gastric carcinoma cells (plitidepsin-resistant); assay: Cell growth inhibition (MTT, 72 h), HGC27-APL-R; assay type: cell-based; details: highest concentration tested 100 nM

Question: Which koff ([1]; read-out: kOFF (first-order rate constant of dissociation)) does the source give for `CC[C@H](C)[C@H]1NC(=O)[C@@H](NC(=O)[C@@H](CC(C)C)N(C)C(=O)[C@@H]2CCCN2C(=O)C(C)=O)[C@@H](C)OC(=O)[C@H](Cc2ccc(OC)cc2)N(C)C(=O)[C@@H]2CCCN2C(=O)[C@H](CC(C)C)NC(=O)[C@@H](C)C(=O)[C@H](C(C)C)OC(=O)C[C@@H]1O` [plitidepsin, Plitidepsin] (Pyruvoyl-P[dNMeL]T[X1]LP[NMeY](Me); ester 3-C (inferred)) here?
Answer: 0.0019 ± 8e-07 s⁻¹

Question: What about the residence time ([1]; read-out: target residence time, from dissociation kinetics (kOFF), rabbit eEF1A2) of the same molecule?
Answer: 8.8 min

Question: What about the “SK1 activity in tumor cells” value [2] of the same molecule?
Answer: decrease the activity of this enzyme in tumor cells

Question: And the “combination effect with bortezomib” value ([3]; with bortezomib)?
Answer: synergistic

Question: And the “combination effect with lenalidomide” value ([3]; with lenalidomide)?
Answer: synergistic

Question: What about the “combination effect with thalidomide” value ([3]; with thalidomide) of the same molecule?
Answer: synergistic

Question: And the “signaling events triggered by plitidepsin” value [4]?
Answer: completely lost

Question: And the “fold resistance to plitidepsin versus parental cells” value [5]?
Answer: at least 100 fold

Question: What about the “alteration in the signaling elicited by plitidepsin” value [6] of the same molecule?
Answer: did not show any alteration in the signaling

Question: What about the IC50 [7] of the same molecule?
Answer: 0.2 nM

Question: What about the “effect on cell growth” value [8] of the same molecule?
Answer: did not cause any effect on cell growth

Question: And the Kd ([9]; [14C]-plitidepsin 0.1 to 4 μM, 100 nM rabbit eEF1A2, 1 μM Gpp(NH)p, pH 7.5, 5% DMSO, 1 h, room temperature, filtration, triplicate)?
Answer: 79 ± 30 nM

Question: What about the Bmax ([9]; [14C]-plitidepsin, 1 h, room temperature) of the same molecule?
Answer: 0.7 mol per mol of protein

Question: And the “alpha (ratio between non-specifically bound ligand and free ligand)” value ([9]; [14C]-plitidepsin)?
Answer: 0.014 ± 0.0005

Question: And the “effect on GDP/GTP exchange in eEF1A2” value [10]?
Answer: very modest

Question: What about the IC50 [11] of the same molecule?
Answer: 1 nM

Question: And the “sensitivity to plitidepsin after ectopic expression of eEF1A2” value [12]?
Answer: partially recovered sensitivity; also recorded: restored the sensitivity

Question: What about the IC50 [13] of the same molecule?
Answer: > 100 nM

Question: And the “direct effect on SK1” value [14]?
Answer: not due to a direct effect of the drug on SK1

Question: And the “decrease of acetylcholine-mediated CHRM4 activation” value [15]?
Answer: 55%

Question: And the “effect on cell growth” value [16]?
Answer: did not cause any effect on cell growth
